From PubChem BioAssay AID210 (DTP/NCI, 2004)
Toxic doses and inconclusive results are not listed.

Tested on: CD2F1 mice, ip Colon 26 adenocarcinoma, median survival T/C
Assay: NCI In Vivo Anticancer Drug Screen. Data for tumor model Colon 26 Adenocarcinoma (intraperitoneal) in CD2F1 (CDF1) mice
Conditions: endpoint: median survival time, higher = longer survival
Procedure: The antitumor activity of compounds was measured in mice bearing transplantable tumors. Survival or tumor size were measured and the results are expressed as the measurement made in the treated group (T) divided by the measurement made in the vehicle treated control group (C). The tumor model used in this assay is Colon 26 Adenocarcinoma (intraperitoneal) in CD2F1 (CDF1) mice

SMILES: CCC(C)C(=O)O[C@H]1C(=O)O[C@@H]2C[C@H]3C(C)=CC(=O)[C@@H](O)[C@]3(C)[C@H]3[C@@H](O)[C@H](O)[C@@]4(C)OC[C@]32[C@@H]14 (some centres not stated)
- T/C (dose: 0.5 mg/kg/injection, schedule: Q04DX002 (ip), vehicle: saline): 102 % of control
- T/C (dose: 1.0 mg/kg/injection, schedule: Q04DX002 (ip), vehicle: saline): 98 % of control
- T/C (dose: 2.0 mg/kg/injection, schedule: Q04DX002 (ip), vehicle: saline): 97 % of control

SMILES: NC(Cc1ccc(N(CCCl)CCCl)cc1)C(=O)O (configuration not stated)
- T/C (dose: 2.0 mg/kg/injection, schedule: Q04DX002 (ip), vehicle: Klucel (hydroxypropylcellulose) (HPC)): 168 % of control
- T/C (dose: 4.0 mg/kg/injection, schedule: Q04DX002 (ip), vehicle: Klucel (hydroxypropylcellulose) (HPC)): 253 % of control
- T/C (dose: 8.0 mg/kg/injection, schedule: Q04DX002 (ip), vehicle: Klucel (hydroxypropylcellulose) (HPC)): 245 % of control
- T/C (dose: 16.0 mg/kg/injection, schedule: Q04DX002 (ip), vehicle: Klucel (hydroxypropylcellulose) (HPC)): 156 % of control

SMILES: CCC1CN2C(=N1)c1ccccc1-c1cc(Cl)ccc12 (configuration not stated)
- T/C (dose: 2.5 mg/kg/injection, schedule: Q04DX003 (ip), vehicle: saline): 102 % of control
- T/C (dose: 2.5 mg/kg/injection, schedule: Q04DX003 (ip), vehicle: suspension in saline): 107 % of control
- T/C (dose: 5.0 mg/kg/injection, schedule: Q04DX003 (ip), vehicle: saline): 111 % of control
- T/C (dose: 5.0 mg/kg/injection, schedule: Q04DX003 (ip), vehicle: suspension in saline): 101 % of control
- T/C (dose: 10.0 mg/kg/injection, schedule: Q04DX003 (ip), vehicle: saline): 92 % of control
- T/C (dose: 10.0 mg/kg/injection, schedule: Q04DX003 (ip), vehicle: suspension in saline): 106 % of control
- T/C (dose: 40.0 mg/kg/injection, schedule: Q04DX003 (ip), vehicle: saline): 121 % of control
- T/C (dose: 40.0 mg/kg/injection, schedule: Q04DX003 (ip), vehicle: suspension in saline): 124 % of control

SMILES: COC1=CC(=O)N(C(=O)C2CSC(C(CO)NC(=O)c3csc(/C=N/O)n3)=N2)C1 (configuration not stated)
- T/C (dose: 50.0 mg/kg/injection, schedule: Q04DX002 (ip), vehicle: Klucel (hydroxypropylcellulose) (HPC)): 93 % of control
- T/C (dose: 100.0 mg/kg/injection, schedule: Q04DX002 (ip), vehicle: Klucel (hydroxypropylcellulose) (HPC)): 105 % of control
- T/C (dose: 200.0 mg/kg/injection, schedule: Q04DX002 (ip), vehicle: Klucel (hydroxypropylcellulose) (HPC)): 101 % of control
- T/C (dose: 400.0 mg/kg/injection, schedule: Q04DX002 (ip), vehicle: Klucel (hydroxypropylcellulose) (HPC)): 105 % of control

SMILES: CC1=CCCC(C)(O)C2CC(CCC3(C)OC3CC1)C(C)C(=O)O2 (configuration not stated)
- T/C (dose: 22.5 mg/kg/injection, schedule: Q04DX002 (ip), vehicle: Klucel (hydroxypropylcellulose) (HPC)): 98 % of control
- T/C (dose: 45.0 mg/kg/injection, schedule: Q04DX002 (ip), vehicle: Klucel (hydroxypropylcellulose) (HPC)): 100 % of control
- T/C (dose: 90.0 mg/kg/injection, schedule: Q04DX002 (ip), vehicle: Klucel (hydroxypropylcellulose) (HPC)): 100 % of control
- T/C (dose: 180.0 mg/kg/injection, schedule: Q04DX002 (ip), vehicle: Klucel (hydroxypropylcellulose) (HPC)): 102 % of control

SMILES: Nc1nc([Se])c2ncn(C3OC(CO)C(O)C3O)c2n1 (configuration not stated)
- T/C (dose: 4.0 mg/kg/injection, schedule: Q04DX003 (ip), vehicle: saline): 114 % of control
- T/C (dose: 4.0 mg/kg/injection, schedule: Q04DX003 (ip), vehicle: suspension in saline): 116 % of control
- T/C (dose: 8.0 mg/kg/injection, schedule: Q04DX003 (ip), vehicle: saline): 104 % of control
- T/C (dose: 8.0 mg/kg/injection, schedule: Q04DX003 (ip), vehicle: suspension in saline): 106 % of control
- T/C (dose: 16.0 mg/kg/injection, schedule: Q04DX003 (ip), vehicle: saline): 109 % of control
- T/C (dose: 16.0 mg/kg/injection, schedule: Q04DX003 (ip), vehicle: suspension in saline): 114 % of control
- T/C (dose: 32.0 mg/kg/injection, schedule: Q04DX003 (ip), vehicle: saline): 111 % of control
- T/C (dose: 32.0 mg/kg/injection, schedule: Q04DX003 (ip), vehicle: suspension in saline): 116 % of control
- T/C (dose: 64.0 mg/kg/injection, schedule: Q04DX003 (ip), vehicle: saline): 121 % of control
- T/C (dose: 64.0 mg/kg/injection, schedule: Q04DX003 (ip), vehicle: suspension in saline): 114 % of control

SMILES: C=C1C(=O)C23C(O)CC4C5(C)CCCC4(C(O)OC5)C2C(OC(C)=O)CC1C3O (configuration not stated)
- T/C (dose: 8.0 mg/kg/injection, schedule: Q04DX002 (ip), vehicle: saline with Tween-80): 116 % of control
- T/C (dose: 16.0 mg/kg/injection, schedule: Q04DX002 (ip), vehicle: saline with Tween-80): 109 % of control
- T/C (dose: 32.0 mg/kg/injection, schedule: Q04DX002 (ip), vehicle: saline with Tween-80): 92 % of control
- T/C (dose: 64.0 mg/kg/injection, schedule: Q04DX002 (ip), vehicle: saline with Tween-80): 103 % of control
